Measured values from the NIST ThermoML archive (doi:10.1016/j.jct.2012.01.008).

Test: xn = mol fraction of the nth substance listed
Conditions: Liquid, Vibrating tube method

CCC[N+]1(C)CCCCC1.O=S(=O)([N-]S(=O)(=O)C(F)(F)F)C(F)(F)F + COc1ccccc1
mass density [kg/m3]
Conditions	100 kPa	10000 kPa	15000 kPa	20000 kPa	25000 kPa	30000 kPa	35000 kPa	40000 kPa	45000 kPa	50000 kPa
298.15 K, x2 = 0.1015	1393.9	1400.6	1403.7	1406.9	1409.8	1412.7	1415.3	1418.1	1420.9	1423.5
298.15 K, x2 = 0.201	1376.9	1383.6	1386.7	1389.9	1392.8	1395.6	1398.2	1401	1403.8	1406.4
298.15 K, x2 = 0.3001	1356.9	1363.7	1366.6	1369.8	1372.7	1375.6	1378.4	1381.2	1383.9	1386.5
298.15 K, x2 = 0.4102	1330.3	1337.1	1340.2	1343.3	1346.2	1349.1	1351.9	1354.7	1357.6	1360.2
298.15 K, x2 = 0.5003	1304.5	1311.4	1314.4	1317.5	1320.4	1323.3	1326.2	1329.1	1331.9	1334.5
298.15 K, x2 = 0.6003	1269.5	1276.3	1279.4	1282.6	1285.5	1288.4	1291.3	1294	1296.7	1299.3
298.15 K, x2 = 0.7003	1225.7	1232.4	1235.5	1238.6	1241.5	1244.4	1247.3	1250.1	1252.8	1255.3
298.15 K, x2 = 0.8	1169.1	1175.8	1178.9	1182	1184.8	1187.7	1190.6	1193.3	1196.1	1198.6
298.15 K, x2 = 0.9	1093.1	1099.7	1102.6	1105.7	1108.4	1111.3	1114.1	1117	1119.8	1122.2
318.15 K, x2 = 0.1015	1377.3	1384.1	1387.6	1390.6	1393.7	1396.8	1399.9	1402.8	1405.7	1408.4
318.15 K, x2 = 0.201	1360	1366.8	1370.3	1373.3	1376.4	1379.5	1382.6	1385.4	1388.3	1391
318.15 K, x2 = 0.3001	1339.7	1346.6	1350	1353	1356.1	1359.2	1362.3	1365.2	1368.1	1370.8
318.15 K, x2 = 0.4102	1312.9	1319.9	1323.3	1326.4	1329.6	1332.7	1335.9	1338.8	1341.7	1344.5
318.15 K, x2 = 0.5003	1286.7	1293.8	1297.3	1300.4	1303.6	1306.7	1309.9	1312.8	1315.7	1318.5
318.15 K, x2 = 0.6003	1251.6	1258.8	1262.2	1265.4	1268.7	1271.8	1275	1277.9	1280.8	1283.5
318.15 K, x2 = 0.7003	1207.7	1215	1218.3	1221.5	1224.8	1227.8	1231	1233.9	1236.8	1239.5
318.15 K, x2 = 0.8	1150.9	1158.4	1161.7	1164.8	1168.1	1171.1	1174.2	1177.1	1180.1	1182.9
318.15 K, x2 = 0.9	1074.5	1082	1085.2	1088.4	1091.8	1094.8	1098	1100.8	1103.7	1106.6
348.15 K, x2 = 0.1015	1351.4	1358.7	1362.3	1366	1369.4	1372.6	1375.9	1378.9	1382.1	1384.8
348.15 K, x2 = 0.201	1333.7	1341.1	1344.8	1348.5	1352	1355.3	1358.4	1361.5	1364.6	1367.5
348.15 K, x2 = 0.3001	1313	1320.5	1324.2	1328	1331.5	1334.8	1338.1	1341.2	1344.4	1347.3
348.15 K, x2 = 0.4102	1285.7	1293.4	1297.2	1301	1304.6	1308	1311.3	1314.5	1317.7	1320.7
348.15 K, x2 = 0.5003	1259.5	1267.3	1271	1274.7	1278.4	1281.8	1285.2	1288.4	1291.6	1294.6
348.15 K, x2 = 0.6003	1224.1	1232.1	1235.9	1239.6	1243.2	1246.6	1250.1	1253.3	1256.5	1259.6
348.15 K, x2 = 0.7003	1179.9	1188.1	1191.9	1195.6	1199.3	1202.6	1206.1	1209.4	1212.7	1215.8
348.15 K, x2 = 0.8	1122.6	1130.9	1134.8	1138.7	1142.5	1145.9	1149.4	1152.8	1156	1159.2
348.15 K, x2 = 0.9	1046	1054.5	1058.3	1062.2	1066	1069.5	1073	1076.5	1079.7	1083
